Target: T1, NMDA receptor composed of four subunits including 2 sets of heterodimers of NR1 and NR2B (Homo sapiens, UniProt Q13224)
T1 construct: host or cells: HEK293 (tetracycline-induced expression)
Assay: NR2B Ca2+ influx assay (FLIPR, Fluo-4) in HEK293 cells expressing human GRIN1 and GRIN2B
Assay type: cell-based
Settings: HEK293, 10 μM final compound concentration, glutamic acid/glycine-induced Ca2+ influx, read-out: inhibitory rate (10 μM compound concentration)
From the text: To confirm the “antagonistic action on an NMDA receptor containing the NR2B subunit” of the compound of the present invention, human embryonic kidney cell expressing the “NMDA receptor composed of four subunits including 2 sets of heterodimers of NR1 and NR2B”, specifically HEK293 cell expressing human glutamate ionotropic receptor NMDA type subunit 1 (GRIN1) and human glutamate ionotropic receptor NMDA type subunit 2B (GRIN2B), was used and the activation suppressive effect on the receptors was measured.
As an index of the NMDA receptor activation, intracellular calcium ion (Ca^2+) influx caused by the binding of glycine and glutamic acid with NR1 and NR2B, respectively, was used. HEK293 cells were purchased from ChanTest. The cells were cultured in a DMEM/F-12 (COSMO BIO, 10-092-CM) medium added with 10% FBS′(fetal bovine serum, AusGene), 100 units/mL penicillin, 100 μg/mL streptomycin, 500 μg/mL neomycin, 100 μg/mL Zeocin, 5 μg/mL Blasticidin at 37° C., 5% CO2. The cells were detached from flask with trypsin the day before the assay, suspended in a seeding medium (DMEM (Invitrogen, 31053) added with 10% FBS, 100 units/mL penicillin, 100 μg/mL streptomycin) at 8×10^5 cells/mL, seeded by 25 μL per well in a 384-well plate (Falcon, 356663) at 20000 cells/well, and cultured overnight in an incubator. On the day of the assay, tetracycline (Wako Pure Chemical Industries, Ltd., 209-16561) was diluted with the seeding medium at 2 μg/mL, added at […] to the plate seeded with the cells, and cultured for 2 hr in an incubator. Thereafter, the medium was removed, and the cells were washed with 50 μL/well assay buffer (137 mM NaCl, 4 mM KCl, 1.8 mM CaCl2, 10 mM HEPES (pH 7.2), 10 mM Glucose, 0.1% BSA). Then, a loading buffer (assay buffer added with 2.5 uM Fluo-4AM, 2 mM Amaranth, 1 mM Tartrazine) was added at 25 μL/well, and loading was performed in the incubator for 30 min, and at room temperature for 15 min. A solution (25 μL) of the Example compound diluted with the above-mentioned assay buffer at 30 μM (final concentration 10 μM) was added, and the cells were stood for 15 min at room temperature. Using FLIPR (Molecular Devices), 25 μL of an assay buffer containing 30 μM glutamic acid, 30 μM glycine was added, and the fluorescence signal was measured every 3 seconds for 5 min. The inhibitory activity was calculated as a relative activity value (inhibitory rate) that inhibits 100% of the cumulative value of the fluorescence value of a well added with a buffer free of glutamic acid, glycine, relative to the cumulative value of the fluorescence value of each well.

T1 sequence (Q13224 27-1484, other chains not shown): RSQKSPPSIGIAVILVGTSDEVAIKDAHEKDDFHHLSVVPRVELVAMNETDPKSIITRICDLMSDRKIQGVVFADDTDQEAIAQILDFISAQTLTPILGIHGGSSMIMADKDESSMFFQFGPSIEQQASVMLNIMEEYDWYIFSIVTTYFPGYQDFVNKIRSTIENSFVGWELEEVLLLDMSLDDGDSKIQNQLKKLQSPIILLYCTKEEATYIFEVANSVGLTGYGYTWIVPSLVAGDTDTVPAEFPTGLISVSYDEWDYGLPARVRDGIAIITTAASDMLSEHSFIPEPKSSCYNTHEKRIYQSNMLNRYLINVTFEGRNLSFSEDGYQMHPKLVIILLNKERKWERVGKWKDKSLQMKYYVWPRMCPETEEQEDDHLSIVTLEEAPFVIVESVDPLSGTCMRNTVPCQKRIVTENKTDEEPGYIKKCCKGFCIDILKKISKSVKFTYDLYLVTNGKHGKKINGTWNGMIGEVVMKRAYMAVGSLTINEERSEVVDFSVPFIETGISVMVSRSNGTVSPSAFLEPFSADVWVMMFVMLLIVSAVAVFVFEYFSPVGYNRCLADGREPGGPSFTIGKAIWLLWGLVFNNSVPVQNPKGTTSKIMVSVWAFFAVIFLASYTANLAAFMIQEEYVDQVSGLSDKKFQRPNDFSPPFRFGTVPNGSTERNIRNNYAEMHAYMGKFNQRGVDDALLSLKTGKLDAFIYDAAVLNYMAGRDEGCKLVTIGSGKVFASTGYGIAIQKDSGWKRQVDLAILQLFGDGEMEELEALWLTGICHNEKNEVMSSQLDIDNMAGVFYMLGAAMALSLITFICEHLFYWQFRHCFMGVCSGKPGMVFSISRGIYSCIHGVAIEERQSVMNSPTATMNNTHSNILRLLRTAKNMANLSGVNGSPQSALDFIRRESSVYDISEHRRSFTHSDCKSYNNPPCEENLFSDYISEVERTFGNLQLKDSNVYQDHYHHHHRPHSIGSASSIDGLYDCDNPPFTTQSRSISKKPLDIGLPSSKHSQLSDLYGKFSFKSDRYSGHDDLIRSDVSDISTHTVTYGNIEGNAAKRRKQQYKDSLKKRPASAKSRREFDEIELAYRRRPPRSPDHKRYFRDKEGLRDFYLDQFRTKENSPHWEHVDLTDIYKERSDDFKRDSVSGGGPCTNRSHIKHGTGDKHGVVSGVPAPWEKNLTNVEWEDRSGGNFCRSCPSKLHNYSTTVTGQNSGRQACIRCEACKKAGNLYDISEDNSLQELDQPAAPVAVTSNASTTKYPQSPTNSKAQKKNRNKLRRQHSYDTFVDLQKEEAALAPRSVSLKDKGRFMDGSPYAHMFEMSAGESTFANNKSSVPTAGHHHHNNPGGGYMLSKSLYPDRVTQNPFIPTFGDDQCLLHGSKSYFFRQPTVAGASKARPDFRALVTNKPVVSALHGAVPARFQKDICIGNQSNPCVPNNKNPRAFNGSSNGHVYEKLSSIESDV

Compound | inhibition at 10 µM
COc1ccc2nc(C)n(C)c2c1CNC(=O)c1ccc(OC(F)F)cc1 [Example 245, 4-(difluoromethoxy)-N-((6-methoxy-1,2-dimethyl-1H-benzimidazol-7-yl)methyl)benzamide] | 81%
O=C(NCc1c(C2CC2)ccc2[nH]ncc12)c1ccc(Cl)cc1 [Example 102, 4-chloro-N-((5-cyclopropyl-1H-indazol-yl)methyl)benzamide] | 92%
O=C(NCc1c(C2CC2)ccc2[nH]nnc12)c1ccc(OC(F)F)c(F)c1 [Example 212, N-((5-cyclopropyl-1H-benzotriazol-4-yl)methyl)-4-(difluoromethoxy)-3-fluorobenzamide] | 93%
O=C(NCc1c(C2CC2)ccc2[nH]ncc12)c1cnc(OC(F)F)c(F)c1 [Example 105, N-((5-cyclopropyl-1H-indazol-4-yl)methyl)-6-(difluoromethoxy)-5-fluoronicotinamide] | 93%
O=C(NCc1c(C2CC2)ccc2[nH]ncc12)c1cc(Cl)c(F)c(Cl)c1 [Example 86, 3,5-dichloro-N-((5-cyclopropyl-1H-indazol-4-yl)methyl)-4-fluorobenzamide] | 94%
CCn1cnc2ccc(OC)c(CNC(=O)c3cnc(OC)c(F)c3)c21 [Example 150, N-((1-ethyl-6-methoxy-1H-benzimidazol-7-yl)methyl)-5-fluoro-6-methoxynicotinamide] | 60%
O=C(NCc1cccc2[nH]ncc12)c1ccc(OC(F)F)c(Cl)c1 [Example 182, 3-chloro-4-(difluoromethoxy)-N-(1H-indazol-4-ylmethyl)benzamide] | 97%
COc1ccc2[nH]nnc2c1CNC(=O)c1ccc(OC(F)(F)F)c(F)c1 [Example 227, 3-fluoro-N-((5-methoxy-1H-benzotriazol-4-yl)methyl)-4-(trifluoromethoxy)-benzamide] | 97%
O=C(NCc1c(C2CC2)ccc2[nH]ncc12)c1cc(F)c(F)c(F)c1 [Example 79, N-((5-cyclopropyl-1H-indazol-4-yl)methyl)-3,4,5-trifluoro-benzamide] | 92%
Cc1c(F)cc(C(=O)NCc2c(C3CC3)ccc3[nH]ncc23)cc1F [Example 97, N-((5-cyclopropyl-1H-indazol-4-yl)methyl)-3,5-difluoro-4-methylbenzamide] | 94%
O=C(NCc1c(C2CC2)ccc2[nH]ncc12)c1ccc(C(F)(F)F)s1 [Example 82, N-((5-cyclopropyl-1H-indazol-4-yl)methyl)-5-(trifluoromethyl)-thiophene-2-carboxamide] | 94%
COc1ccc2nc(C)n(C)c2c1CNC(=O)c1ccc(OC(F)(F)F)cc1 [Example 252, N-((6-methoxy-l,2-dimethyl-1H-benzimidazol-7-yl)methyl)-4-(trifluoromethoxy)-benzamide] | 88%
COc1ccc(C(=O)NCc2c(C)ccc3[nH]nnc23)cc1F [Example 201, 3-fluoro-4-methoxy-N-((5-methyl-1H-benzotriazol-4-yl)methyl)benzamide] | 92%
COc1c(F)cc(C(=O)NCc2c(C3CC3)ccc3[nH]nnc23)cc1F [Example 204, N-((5-cyclopropyl-1H-benzotriazol-4-yl)methyl)-3,5-difluoro-4-methoxybenzamide] | 93%
O=C(NCc1c(C2CC2)ccc2[nH]ncc12)c1cc(Cl)cs1 [Example 70, 4-chloro-N-((5-cyclopropyl-1H-indazol-4-yl)methyl)thiophene-2-carboxamide] | 92%
CCOc1ncc(C(=O)NCc2c(C3CC3)ccc3[nH]ncc23)cc1F [Example 119, N-((5-cyclopropyl-1H-indazol-4-yl)methyl)-6-ethoxy-5-fluoronicotinamide] | 94%
CCc1ccc2[nH]ncc2c1CNC(=O)c1cc(F)c(OC)c(F)c1 [Example 16, N-((5-ethyl-1H-indazol-4-yl)methyl)-3,5-difluoro-4-methoxybenzamide] | 94%
O=C(NCc1c(C2CC2)ccc2[nH]ncc12)c1csc(Cl)c1 [Example 69, 5-chloro-N-((5-cyclopropyl-1H-indazol-4-yl)methyl)thiophene-3-carboxamide] | 93%

Continued, values first:

inhibition at 10 µM | Compound
91% | CCc1ccc2ncn(C)c2c1CNC(=O)c1ccc(OC(F)F)cc1 [Example 148, 4-(difluoromethoxy)-N-((6-ethyl-1-methyl-1H-benzimidazol-7-yl)methyl)benzamide]
92% | COc1ccc2ncn(C)c2c1CNC(=O)c1cc(F)c(OC(F)F)c(F)c1 [Example 161, 4-(difluoromethoxy)-3,5-difluoro-N-((6-methoxy-1-methyl-1H-benzimidazol-7-yl)methyl)benzamide]
90% | Cc1ccc2ncn(C)c2c1CNC(=O)c1csc(C2CC2)c1 [Example 144, 5-cyclopropyl-N-((1,6-dimethyl-1H-benzimidazol-7-yl)methyl)thiophene-3-carboxamide]
90% | COc1c(F)cc(C(=O)NCc2c(F)ccc3ncn(C)c23)cc1F [Example 210, 3,5-difluoro-N-((6-fluoro-1-methyl-1H-benzimidazol-7-yl)methyl)-4-methoxybenzamide]
83% | CCn1cnc2ccc(OC)c(CNC(=O)c3cc(F)c(OC)c(F)c3)c21 [Example 151, N-((1-ethyl-6-methoxy-1H-benzimidazol-7-yl)methyl)-3,5-difluoro-4-methoxybenzamide]
90% | Cc1ccc2ncn(C)c2c1CNC(=O)c1cnc(OC(F)F)c(F)c1 [Example 134, 6-(Difluoromethoxy)-N-((1,6-dimethyl-1H-benzimidazol-7-yl)methyl)-5-fluoronicotinamide]
92% | COc1ccc2ncn(C)c2c1CNC(=O)c1cc(F)c(C)c(F)c1 [Example 9, 3,5-difluoro-N-((6-methoxy-1-methyl-1H-benzimidazol-7-yl)methyl)-4-methylbenzamide]
68% | COc1cc(C(=O)NCc2c(OC)ccc3ncn(C)c23)ccc1F [Example 46, 4-fluoro-3-methoxy-N-((6-methoxy-1-methyl-1H-benzimidazol-7-yl)methyl)benzamide]
89% | COc1ccc2ncn(C)c2c1CNC(=O)c1ccc(F)c(C(F)(F)F)c1 [Example 40, 4-fluoro-N-((6-methoxy-1-methyl-1H-benzimidazol-7-yl)methyl)-3-(trifluoro-methyl)benzamide]
70% | COc1ccc2nc(C)n(C)c2c1CNC(=O)c1csc(Cl)c1 [Example 228, 5-chloro-N-((6-methoxy-1,2-dimethyl-1H-benzimidazol-7-yl)methyl)thiophene-3-carboxamide]
94% | COc1ccc2ncn(C)c2c1CNC(=O)c1ccc(OC(F)(F)F)cc1 [Example 12, N-((6-methoxy-1-methyl-1H-benzimidazol-7-yl)methyl)-4-(trifluoromethoxy)benzamide]
93% | COc1ccc2ncn(C)c2c1CNC(=O)c1csc(C2CC2)c1 [Example 115, 5-cyclopropyl-N-((6-methoxy-1-methyl-1H-benzimidazol-7-yl)methyl)thiophene-3-carboxamide]
85% | Cc1ccc2ncn(C)c2c1CNC(=O)c1csc(C(F)F)c1 [Example 142, 5-(difluoromethyl)-N-((1,6-dimethyl-1H-benzimidazol-7-yl)methyl)thiophene-3-carboxamide]
